Paper PMC6268547, “A New Ursane-Type Nor-Triterpenoid from the Leaves of Eucommia ulmoides Oliv” (Molecules, 2012)

Target: T1, protein tyrosine phosphatase 1B (PTP1B) (Homo sapiens, UniProt P18031)
T1 construct: gene PTPN1; Recombinant human GST-PTP1B
T1 sequence (P18031 1-435): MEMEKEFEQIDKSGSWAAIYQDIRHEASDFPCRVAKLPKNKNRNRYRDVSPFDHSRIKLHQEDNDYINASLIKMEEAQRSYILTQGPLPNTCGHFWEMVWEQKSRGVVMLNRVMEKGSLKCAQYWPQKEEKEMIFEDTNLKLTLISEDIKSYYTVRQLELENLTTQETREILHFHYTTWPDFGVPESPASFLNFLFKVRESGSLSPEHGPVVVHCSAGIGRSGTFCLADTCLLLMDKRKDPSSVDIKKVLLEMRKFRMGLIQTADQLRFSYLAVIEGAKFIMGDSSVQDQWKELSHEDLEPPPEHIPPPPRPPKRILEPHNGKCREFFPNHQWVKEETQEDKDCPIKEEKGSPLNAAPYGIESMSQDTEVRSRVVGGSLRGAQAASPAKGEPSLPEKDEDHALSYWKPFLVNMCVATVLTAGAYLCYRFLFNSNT
Assay: pNPP hydrolysis assay with purified GST-PTP1B, absorbance at […] nm
Format: biochemical

| IC50 | Structure (SMILES) |
| --- | --- |
| 690 nM | C[C@H]1[C@H](C)CC[C@]2(C(=O)O)CC[C@]3(C)C(=CC[C@@H]4[C@@]5(C)C[C@@H](O)[C@H](O)C(C)(C)[C@@H]5CC[C@]43C)[C@H]12 [compound 3, corosolic acid] |
| 3980 nM | C=C1[C@H](O)[C@H](O)C[C@]2(C)[C@H]3CC=C4[C@@H]5CC(C)(C)CC[C@]5(C(=O)O)CC[C@@]4(C)[C@]3(C)CC[C@@H]12 [compound 4, 2α,3α-dihydroxy-24-nor-4(23),12-oleanadien-28-oic acid] |
